Measurements: US12319696B2, “2,6-dimethyl-n-((pyridin-4-yl)methyl)imidazo[1,2-b]pyridazin-8-amine and 2,5-dimethyl-n-[(pyridin-4-yl)methyl]pyrazolo[1,5-a]pyrimidin-7-amine derivatives for treating viral infections” (CUROVIR AB, priority 2018, dated 2025)

Tests used:
[1] = system: coxsackie B virus strain 3; assay: Antiviral CPE inhibition assay in mammalian cell culture, Cox B3; type: cell-based; conditions: for inhibition at 0.01 µM: read-out: Inh. at 10 nM, Cox B3; for inhibition at 0.1 µM: read-out: Inh. at 100 nM, Cox B3
enterovirus D68 = assay: Antiviral CPE inhibition assay in mammalian cell culture, EV-D68; type: cell-based; conditions: Enterovirus D, EVD68, inhibition of viral CPE; for inhibition at 0.01 µM: 10 nM, read-out: Inh. at 10 nM, EV-D68; for inhibition at 0.1 µM: 100 nM, read-out: Inh. at 100 nM, EV-D68
polio virus strain 1 = assay: organism not typed; type: cell-based; conditions: for inhibition at 0.01 µM: read-out: Inh. at 10 nM, Polio 1; for inhibition at 0.1 µM: read-out: Inh. at 100 nM, Polio 1
enterovirus strain 6 = assay: microbe, parasite or virus in culture; type: cell-based; conditions: inhibition of viral CPE; for inhibition at 0.01 µM: 10 nM, read-out: Inh. at 10 nM, EV6; for inhibition at 0.1 µM: 100 nM, read-out: Inh. at 100 nM, EV6
[2] = system: coxsackie B virus strain 2; assay: Antiviral CPE inhibition assay in mammalian cell culture, Cox B2; type: cell-based; conditions: for inhibition at 0.01 µM: read-out: Inh. at 10 nM, Cox B2; for inhibition at 0.1 µM: read-out: Inh. at 100 nM, Cox B2
CYP3A4 = biological target: T1, CYP3A4 (Homo sapiens, UniProt P08684); assay: In vitro CYP 3A4 enzyme inhibition in human liver microsomes by probe substrate method; type: in vitro ADME; conditions: human liver microsomes 0.5 mg/mL; probe substrate Midazolam 5 μM
T1 construct: from tissue; host or cells: human liver microsomes
T1 sequence (P08684 whole entry): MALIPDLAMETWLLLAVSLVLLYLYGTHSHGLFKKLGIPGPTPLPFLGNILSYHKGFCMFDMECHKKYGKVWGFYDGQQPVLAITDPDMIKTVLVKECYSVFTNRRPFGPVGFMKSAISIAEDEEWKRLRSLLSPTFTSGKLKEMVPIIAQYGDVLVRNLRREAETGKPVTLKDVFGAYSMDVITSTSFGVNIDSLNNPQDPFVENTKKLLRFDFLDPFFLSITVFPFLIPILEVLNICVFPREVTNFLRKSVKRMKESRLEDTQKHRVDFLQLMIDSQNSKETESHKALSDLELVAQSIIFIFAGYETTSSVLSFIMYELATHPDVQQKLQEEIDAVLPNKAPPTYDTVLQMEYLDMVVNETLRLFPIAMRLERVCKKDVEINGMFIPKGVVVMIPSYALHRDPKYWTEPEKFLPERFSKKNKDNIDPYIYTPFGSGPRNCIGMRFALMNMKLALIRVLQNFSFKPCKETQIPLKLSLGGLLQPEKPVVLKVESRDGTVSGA
Description: In Vitro CYP 3A4 Enzyme Inhibition Study in Human Liver Microsomes by Probe Substrate Method
In vitro CYP3A4 enzyme inhibition assay was performed using Human liver microsomes at 0.5 mg/mL concentration. Ketoconazole was used as reference inhibitor and Midazolam was used as selective probe substrate for CYP 3A4 enzyme. Serial dilution of test/control items was prepared in potassium phosphate buffer (50 mM, pH 7.40) to obtain eight concentrations each in a 1:4 dilution pattern. The percentage of acetonitrile/DMSO was maintained at 2.5%/0.25% in 2.5× serially diluted control/test item solutions respectively. The final percentage of acetonitrile/DMSO was 1%/0.1% respectively. Intermediate solutions such as 10× working solution (5 mg/mL) of Human liver microsomal solution, 10× concentration of reference probe substrates in buffer, 5× concentrations of Cofactors (5.0 mM NADP+, 25.0 mM G-6-P, 3.0 IU/mL G-6-PDH and 10.0 mM MgCl2) were prepared in potassium phosphate buffer. The final concentration of liver microsomes in the reaction mixture was 0.5 mg/mL, cofactors was 1.0 mM NADP+, 5.0 mM G-6-P, 0.6 IU/mL G-6-PDH and 2.0 mM MgCl2. Midazolam was tested at 5 μM test concentration. 40 μL of 2.5× serially diluted test/control item solutions and 10 μL of […] liver microsomal solution were added to 96 well plate and incubated for 10 min at 37° C. with shaking condition (400 rpm) using Thermomixer. After pre incubation, 20 μL of potassium phosphate buffer, 10 μL of respective probe substrate working solution and 20 μL of cofactor mix was added.

enterovirus strain 30 = assay: Antiviral CPE inhibition assay in mammalian cell culture, EV30; type: cell-based; conditions: inhibition of viral CPE; for inhibition at 0.01 µM: 10 nM, read-out: Inh. at 10 nM, EV30; for inhibition at 0.1 µM: 100 nM, read-out: Inh. at 100 nM, EV30
[3] = system: coxsackie B virus strain 5; assay: Antiviral CPE inhibition assay in mammalian cell culture, Cox B5; type: cell-based; conditions: for inhibition at 0.01 µM: read-out: Inh. at 10 nM, Cox B5; for inhibition at 0.1 µM: read-out: Inh. at 100 nM, Cox B5
[4] = system: coxsackie B virus strain 1; assay: Antiviral CPE inhibition assay in mammalian cell culture, Cox B1; type: cell-based; conditions: for inhibition at 0.01 µM: read-out: Inh. at 10 nM, Cox B1; for inhibition at 0.1 µM: read-out: Inh. at 100 nM, Cox B1
enterovirus strain 71 = assay: Antiviral CPE inhibition assay in mammalian cell culture, EV71; type: cell-based; conditions: inhibition of viral CPE; for inhibition at 0.01 µM: 10 nM, read-out: Inh. at 10 nM, EV71; for inhibition at 0.1 µM: 100 nM, read-out: Inh. at 100 nM, EV71
[5] = Metabolic stability in human liver microsomes; type: in vitro ADME; conditions: 5 μM test item, 0.25 mg/mL microsomal protein
Description: (§1) Metabolic stability assay was carried out using Human/Rat liver microsomes. […] Test item/Control items were incubated with Human/Rat liver microsomes with cofactors and without cofactors. The reaction mixture (100 μL) was removed at specified time period and the reaction was stopped by addition of stop solution. The samples were extracted in presence of internal standard and were analyzed using LC-MS/MS. The percent of the test/Control item remaining after specified incubation period was calculated with respect to the peak area ratio at time 0 min. […] The reaction mixture was incubated further at 37° C. for specified incubation time points (With Cofactors: 0, 15, 30, 60 and 120 min; Without Cofactors: 0 and 120 min). 100 μL incubation samples of test items and Control items at specified incubation time points were transferred to respective tubes for sample extraction. Test and Control item specimens were extracted by Protein precipitation method. A 100 μL incubation sample at each time point was added to tubes containing 200 μL of ice-cold acetonitrile and 50 μL Haloperidol solution (0.5 μg/mL). Then the tubes were vortex mixed thoroughly and centrifuged at 10000 rpm for 10 minutes at 4° C. A clear supernatant of 200 μL of samples were submitted for LC-MS/MS analysis.

[6] = Human plasma protein binding (Rapid Equilibrium Dialysis); type: in vitro ADME; conditions: pH 7.4, RED device, 37° C.
Description: (§2) Plasma protein binding study was performed using a Rapid Equilibrium Dialysis (RED) device containing dialysis membrane with a molecular weight cut-off of 8,000 Daltons. Each dialysis insert contained two chambers. The red chamber was for the plasma while the white chamber was for the buffer. Test items and Control items (Warfarin and Propranolol) were prepared at a required test concentration of 10 μM in Human/Rat plasma (pH adjusted to 7.40) using 10 mM DMSO stocks (final DMSO concentration was 0.1%). 300 μL of plasma sample was added into the sample chamber. 500 μL of buffer was added into the buffer chamber. After sealing the RED device with an adhesive film, incubation was done at 37° C. with shaking at 300 rpm for 4 h. Following incubation, an aliquot of 50 μL was removed from each well (plasma and buffer side) and diluted with equal volume of opposite matrix to nullify the matrix effect and subjected for sample extraction.
(§3) All samples were extracted by Protein Precipitation method by adding 200 μL of ice cold Acetonitrile and 50 μL of internal standard (Haloperidol at 0.1 μg/mL) solution. The tubes were vortex mixed thoroughly and centrifuged at 10000 rpm, 4° C. for 10 minutes. A clear supernatant of 200 μL of samples were submitted for LC-MS/MS analysis.

[7] = Metabolic stability in rat liver microsomes; type: in vitro ADME; conditions: 5 μM test item, 0.25 mg/mL microsomal protein
Description: as §1

[8] = Rat plasma protein binding (Rapid Equilibrium Dialysis); type: in vitro ADME; conditions: pH 7.4, RED device, 37° C.
Description: as §2, §3

in vivo = assay: in vivo; parameters: species or system Sprague Dawley rats; conditions: male, Sprague Dawley, rat, po, 10 mg/kg
Description: 10 mg of the compound was weighed and transferred to graduated tube. Then 500 μL of DMA (5% v/v) was added, vortex mixed thoroughly and sonicated till test item was completely dissolved. Then 5 mL of PEG 200 (50% v/v) were added, and vortex mixed thoroughly. Thereafter, Sterile Water for Injection (SWFI) was added in small increments and vortex mixed thoroughly. Finally, the volume was made up to 10 mL with SWFI (45% v/v) to obtain a clear solution with final formulation strength of 1 mg/mL. […] Formulation was freshly prepared before the administration to animals. Adult healthy male Sprague Dawley rats aged 8-10 weeks were used for experimentation after a minimum 3 days of acclimation. Fasted animals were administered with test compound in recommended vehicle (5% DMA+50% PEG 200+45% SWFI) by oral route at a dose of 10 mg/kg body weight and at dose volume of 10 mL/kg body weight. Under mild isoflurane anesthesia, blood specimens were collected into pre-labeled tubes containing anticoagulant (K2EDTA—2 mg/mL blood) at different time points post dose.

SMILES | inhibition at 0.01 µM [1] | inhibition at 0.1 µM [1] | inhibition at 0.01 µM (enterovirus D68) | inhibition at 0.1 µM (enterovirus D68) | inhibition at 0.01 µM (polio virus strain 1) | inhibition at 0.1 µM (polio virus strain 1) | inhibition at 0.01 µM (enterovirus strain 6) | inhibition at 0.1 µM (enterovirus strain 6) | inhibition at 0.01 µM [2] | inhibition at 0.1 µM [2] | IC50 (CYP3A4) | inhibition at 0.01 µM (enterovirus strain 30) | inhibition at 0.1 µM (enterovirus strain 30) | inhibition at 0.01 µM [3] | inhibition at 0.1 µM [3] | inhibition at 0.01 µM [4] | inhibition at 0.1 µM [4] | inhibition at 0.01 µM (enterovirus strain 71) | inhibition at 0.1 µM (enterovirus strain 71) | % remaining after incubation for 60 min, Human microsomes [5] | further results
COc1ccc(-c2c(C)nc3c(NCc4ccnc(C)c4)cc(C)nn23)cc1OC [Ex. 1, 3-(3,4-dimethoxyphenyl)-2,6-dimethyl-N-((2-methylpyridin-4-yl)methyl)imidazo[1,2-b]pyridazin-8-amine] | 100% | 100% | 85% | 83% | 100% | 100% | 100% | 100% | 100% | 100% | 23.1 µM | 100% | 100% | 80% | 100% | 93% | 100% | 68% | 77% | – | –
Cc1cc(NCc2ccnc(F)c2)n2nc(C)c(-c3ccc4c(c3)c(C)nn4C)c2n1 [Ex. 3, 3-(1,3-dimethyl-1H-indazol-5-yl)-2,5-dimethyl-N-[(2-fluoropyridin-4-yl)methyl]pyrazolo[1,5-a]pyrimidin-7-amine] | 100% | 100% | 76% | 70% | 100% | 100% | 88% | 100% | 100% | 100% | > 25 µM | 100% | 100% | 48% | 100% | 68% | 100% | 82% | 81% | 96.1% | fraction unbound at 4 h, 10 μM [6]: 0.022; % remaining after incubation for 60 min, Rat microsomes [7]: 99.4%; fraction unbound at 4 h, 10 μM [8]: 0.059
Cc1cc(NCc2ccncc2)n2nc(C)c(-c3ccc4c(c3)c(C)nn4C)c2n1 [Comp. Y, 3-(1,3-dimethyl-1H-indazol-5-yl)-2,5-dimethyl-N-[(pyridin-4-yl)methyl]pyrazolo[1,5-a]pyrimidin-7-amine, reference compound] | 100% | 100% | 85% | 80% | 100% | 100% | 100% | 100% | 100% | 100% | 0.28 µM | 100% | 100% | 85% | 100% | 100% | 100% | 87% | 86% | 86.2% | fraction unbound at 4 h, 10 μM [6]: 0.027; % remaining after incubation for 60 min, Rat microsomes [7]: 89.7%; fraction unbound at 4 h, 10 μM [8]: 0.024; AUC(0-inf) (in vivo): 15500 ± 1900 ng·h/mL; AUC(0-t) (in vivo): 14800 ± 2600 ng·h/mL; AUCextrap (in vivo): 4.6 ± 5.6%; Cmax (in vivo): 2300 ± 300 ng/mL; MRT last (in vivo): 4.4 ± 1.1 h; Tmax (in vivo): 1.2 ± 0.8 h; half-life (in vivo): 3.4 ± 1.2 h
COc1ccc(-c2c(C)nn3c(NCc4ccncc4)cc(C)nc23)cc1OC [X, 3-(3,4-dimethoxyphenyl)-2,5-dimethyl-N-(pyridin-4-ylmethyl)pyrazolo[1,5-a]pyrimidin-7-amine, reference compound] | 100% | 100% | 86% | 86% | 100% | 100% | 100% | 100% | 100% | 100% | 0.97 µM | 100% | 100% | 100% | 100% | 100% | 100% | 82% | 82% | – | –
COc1ccc(-c2c(C)nc3c(NCc4ccnc(F)c4)cc(C)nn23)cc1OC [compound 2, 3-(3,4-dimethoxyphenyl)-N-((2-fluoropyridin-4-yl)methyl)-2,6-dimethylimidazo[1,2-b]pyridazin-8-amine] | 100% | 100% | 73% | 68% | 100% | 100% | 100% | 100% | 100% | 100% | > 25 µM | 100% | 100% | 84% | 100% | 100% | 100% | 76% | 75% | – | –
